Measured values taken from PMC7827809, “Responses of the Pheromone-Binding Protein of the Silk Moth Bombyx mori on a Graphene Biosensor Match Binding Constants in Solution” (Sensors (Basel, Switzerland), 2021).
Entries after “also recorded” stand apart in the source; their conditions may differ. Like-named read-outs stand apart in the source and are kept apart here.

Assays:
[1] = molecular target: T1, BmorPBP1 (Bombyx mori pheromone-binding protein PBP1) (Bombyx mori, UniProt P34174); test: Fluorescence binding assay in solution (1-NPN titration and competitive displacement); conditions: for binding in solution (displacement of 1-NPN), in words: pH 7.4, protein and probe 2 μM
T1 construct: polyhistidine (his-tag, from pET15b) (N); made in house; host or cells: Escherichia coli
T1 sequence (P34174 23-164): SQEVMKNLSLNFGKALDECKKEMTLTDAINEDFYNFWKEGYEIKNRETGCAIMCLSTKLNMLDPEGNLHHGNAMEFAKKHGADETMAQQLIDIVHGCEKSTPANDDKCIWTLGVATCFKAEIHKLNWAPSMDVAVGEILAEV
Experimental: Dissociation constants were measured in solution along with the widely adopted fluorescence binding assay. Spectra were recorded on a PerkinElmer FL 6500 spectrofluorometer at room temperature in a right-angle configuration, with a 1-cm light path quartz cuvette and 5-nm slits for both excitation and emission.
First, the binding of BmorPBP1 to the fluorescent probe N-phenyl-1-naphthylamine (1-NPN) […] of 1-NPN in methanol to final concentrations of 2–16 μM. Excitation wavelength was 337 nm and intensity was recorded at the maximum of the emission peak, 408 nm. The affinities of other ligands were evaluated in competitive binding assays by titrating a solution of the protein and 1-NPN, both at the concentration of 2 μM, with aliquots of 1-mM methanol solutions of each chemical to final concentrations of 2–16 μM. The affinity to 1-NPN was calculated using Prism software. Dissociation constants of competing ligands were evaluated from the corresponding [IC]50 values (the concentration of each ligand halving the initial value of fluorescence), using the equation: Kd = [IC]50/1 + [1-NPN]/KNPN, where [1-NPN] is the concentration of free 1-NPN and KNPN the dissociation constant of the complex Protein/1-NPN.

[2] = molecular target: T2, BmorPBP1 immobilized on reduced graphene oxide field-effect transistor (Bombyx mori, UniProt P34174); test: BmorPBP1-functionalized rGO-FET biosensor (titration and kinetic runs, Langmuir model); assay type: binding
T2 construct: polyhistidine (his-tag, from pET15b) (N); made in house; host or cells: Escherichia coli
T2 sequence (P34174 23-164): T1 sequence (P34174 23-164)
Experimental: Reduced graphene oxide field-effect transistors (rGO-FET) were fabricated as previously described with a modified channel width of 30 µm. Electrical properties of the FET devices were tested along with the procedure. For the detection of different odorants, the rGO-based biosensors were functionalized with BmorPBP1. Briefly, for the attachment of the protein to the sensing area, the graphene surface was chemically modified with a bifunctional linker: a 10-μL droplet of a 10-μM 6-(4-(pyren-3-yl) butanamido)-2-(bis(carboxymethyl) amino) hexanoic acid solution was applied overnight to the rGO channel area, rinsed, incubated for 30 min with a 40-mM NiCl2 solution (pH 5.5, adjusted with KOH), rinsed, then incubated with 20 μL of a 10-μM protein solution, followed by a final rinse.
The evaluation of BmorPBP1 binding affinities to various odorants was performed under the following standardized conditions: electrical measurements were taken using a Keithley 4200 semiconductor characterization system. An Ag/AgCl reference electrode (Flex ref, World Precision Instruments) was used to operate the FET device in liquid gate configuration with a constant gate bias (Vg) of −0.6 V and a constant source-drain bias (VDS) of 0.05 V. A flow rate of the odorant solutions in the flow cell was set at 300 µL/min in order to minimize mass transfer limitations of the analytes to the sensor surface. […] Subsequently, the biosensor was titrated with different odorant concentrations (1 μM–4 mM) and the change in source–drain current (ΔIDS) was monitored in real time. Here, the lowest odorant concentration was injected first, and the odorant was allowed to interact with the surface immobilized BmorPBP1 to reach equilibrium, as indicated by a constant source–drain current. This process was repeated with odorant solutions of higher concentrations, until the surface was fully saturated with the target analyte, as indicated by a constant source–drain current (IDS). Surface titration experiments were terminated by a final washing step using pure buffer in order to dissociate the formed PBP1-odorant complex, resulting in almost complete restoration of the initial baseline current. […] For this reason, the drain current response curves were normalized by subtraction to the baseline current. Kinetic parameters, as well as the dissociation constant, Kd, of the above described titration experiments were analyzed using the Langmuir model.
With the electronic transducer directly coupled to a flow cell, one can perform titrations as well as kinetic measurements by online changing of the analyte solution (pure buffer, different analytes at different concentrations) flowing through the cell, while recording the sensor response, i.e., a change in the source–drain current, ΔIDS = IDS − IDSBaseline, in real time.
Earlier studies have given evidence that the underlying molecular mechanism of the recognition and binding of odorant analytes from solution to the surface-immobilized protein, BmorPBP1 in this case, can be well described by the Langmuir adsorption model: the sensor has a fixed number of binding sites on its surface, whose occupancy is measured by Θ, the coverage, ranging from 0 to 1. […] The Langmuir model describes this relation between the coverage, Θ, and the bulk analyte concentration, c0 , by Equation (1):(1) Θ(c0)=ΔIDS(c0)/ΔIDS(c∞)=c0/Kd/(1+c0/Kd)
Alternatively, with the flow cell attached, one can measure the kinetics of the sensor response, ΔIDS, after changing the concentration in the bulk to another value. For an increase of the bulk concentration this can be described in the Langmuir model by Equation (2):(2) Θ(t)=c0/Kd/(1+c0/Kd)·(1−e^−(konc0+koff)t)
Measuring this association of kinetics at different bulk concentrations then allows for the determination of the rate constants, kon and koff. […]

[3] = molecular target: T1, BmorPBP1 (Bombyx mori pheromone-binding protein PBP1); conditions: at concentrations of 7 μM ref 31; cited from earlier work
[4] = competitive displacement of 1-NPN, protein and probe 2 μM, 50 mM Tris-Cl pH 7.4, read-out: Solution Data Kd
[5] = immobilized protein, pH 8.0, kinetic runs, averaged results, read-out: Sensor Data Kd, Kinetics
[6] = immobilized protein, pH 8.0, Langmuir isotherm fit, read-out: Sensor Data Kd, Titration
[7] = Sensor Data Kd, Kinetics, immobilized protein, pH 8.0, kinetic runs, averaged results

| Compound | Kd [1, 4] | binding in solution (displacement of 1-NPN), in words [1] | Kd [2, 5] | sensor response (ΔIDS), in words ([2]; physiological pH / pH 8) | also measured |
| --- | --- | --- | --- | --- | --- |
| C=CC(C)(O)CCC=C(C)C (centres unmarked) [Linalool, linalool] | ~40 µM | poor binding | > 1000 µM | very weak responses | – |
| CCC/C=C\C=C\CCCCCCCCCO [Bombykol, bombykol] | 0.94 µM | strongest ligand | 8.2 µM | – | Kd ([1]; competitive displacement of 1-NPN, pH 4.0, read-out: Solution Data Kd): > 100 µM; binding in solution at pH 4, in words ([1]; pH 4): completely abolished; also recorded: failed to bind; Kd ([2]; immobilized protein, pH 4.0, read-out: Sensor Data Kd, Kinetics): > 1000 µM; Kd [2, 6]: 9.8 µM; sensor response (ΔIDS) at pH 4, in words ([2]; pH 4): failed to bind; also recorded: barely detectable; Kd ([2]; pH 8, single global analysis run of Figure 2A(I)/2C, read-out: kinetically-determined dissociation constant Kd (koff/kon)): 4.7 µM; displacement of the fluorescence probe 1-NPN, in words [3]: efficiently and similarly displace |
| CC(C)=CCC/C(C)=C/CO [Geraniol, geraniol] | – | poor binding | – | very weak responses | Kd [1]: ~20 µM; Kd [2, 7]: 470 µM |
| c1ccc(Nc2cccc3ccccc23)cc1 [1-NPN, N-phenyl-1-naphthylamine] | – | – | – | – | Kd [1]: 0.75 µM |
| COc1nccnc1CC(C)C [2-Isobutyl-3-methoxypyrazine, 2-isobutyl-3-methoxypyrazine] | > 100 µM | poor binding | 1300 µM | very weak responses | Kd [2, 6]: 2800 µM |
| CC(=O)OCCC(C)C [Isoamyl acetate, isoamyl acetate] | ~20 µM | poor binding | > 1000 µM | does not give a significant response | sensor response (ΔIDS), in words ([2]; physiological pH / pH 8, listed as isoamyl acetate): very weak responses |
| CCC/C=C\C=C\CCCCCCCCC=O [Bombykal, bombykal] | 1.1 µM | strongest ligand | 7.4 µM | – | displacement of the fluorescence probe 1-NPN, in words [3]: efficiently and similarly displace |
| C=CCc1ccc(O)c(OC)c1 [Eugenol, eugenol] | 2.8 µM | appreciable affinity | – | strong signal | Kd [2, 7]: 8.1 µM; Kd ([2]; Sensor Data Kd, Titration, immobilized protein, pH 8.0, Langmuir isotherm fit): 7.6 µM |
